Data published in PubChem BioAssay (NCI).
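Compound exposure: 48 hours, 5 concentrations, 96-well plates. TGI denotes the concentration required for complete inhibition of growth.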

Each compound was assayed on NCI-H460 lung (assay: NCI-60 cell line screen, 48 h).

| Compound | TGI [µM] |
| --- | --- |
| C=CC[C@]12C=C(OC)[C@@H](O)[C@](OC)(C(c3cc(OC)c4c(c3)OCO4)[C@H]1C)[C@H]2OC(C)=O (stereo partly drawn) | > 100 |
| Cn1c2ccccc2c(=NNc2cccc(C(=O)O)c2)c2ccccc21 | 22 |
| C=CCOc1ccc(C2C(C(=O)OCC)C(=O)CC(C)(O)C2C(=O)OCC)cc1OC (stereo not drawn) | > 100 |
| Nc1nc(Cl)cc(NCC2(CO)CCCC2)n1 | > 100 |

These compounds were tested on SNB-75 CNS (assay: NCI-60 cell line screen, 48 h).

| Compound | TGI [µM] |
| --- | --- |
| C=CC[C@]12C=C(OC)[C@@H](O)[C@](OC)(C(c3cc(OC)c4c(c3)OCO4)[C@H]1C)[C@H]2OC(C)=O (stereo partly drawn) | > 100 |
| Cn1c2ccccc2c(=NNc2cccc(C(=O)O)c2)c2ccccc21 | 54 |
| C=CCOc1ccc(C2C(C(=O)OCC)C(=O)CC(C)(O)C2C(=O)OCC)cc1OC (stereo not drawn) | > 100 |
| Nc1nc(Cl)cc(NCC2(CO)CCCC2)n1 | > 100 |

These compounds were tested on MOLT-4 leukemia (assay: NCI-60 cell line screen, 48 h).

| Compound | TGI [µM] |
| --- | --- |
| C=CC[C@]12C=C(OC)[C@@H](O)[C@](OC)(C(c3cc(OC)c4c(c3)OCO4)[C@H]1C)[C@H]2OC(C)=O (stereo partly drawn) | > 100 |
| Cn1c2ccccc2c(=NNc2cccc(C(=O)O)c2)c2ccccc21 | 22.7 |
| C=CCOc1ccc(C2C(C(=O)OCC)C(=O)CC(C)(O)C2C(=O)OCC)cc1OC (stereo not drawn) | > 100 |
| Nc1nc(Cl)cc(NCC2(CO)CCCC2)n1 | > 100 |

The compounds below were run on HT29 colon (assay: NCI-60 cell line screen, 48 h).

| Compound | TGI [µM] |
| --- | --- |
| C=CC[C@]12C=C(OC)[C@@H](O)[C@](OC)(C(c3cc(OC)c4c(c3)OCO4)[C@H]1C)[C@H]2OC(C)=O (stereo partly drawn) | > 100 |
| Cn1c2ccccc2c(=NNc2cccc(C(=O)O)c2)c2ccccc21 | 14.7 |
| C=CCOc1ccc(C2C(C(=O)OCC)C(=O)CC(C)(O)C2C(=O)OCC)cc1OC (stereo not drawn) | > 100 |
| Nc1nc(Cl)cc(NCC2(CO)CCCC2)n1 | > 100 |

The compounds below were run on MDA-MB-435 (assay: NCI-60 cell line screen, 48 h).

| Compound | TGI [µM] |
| --- | --- |
| C=CC[C@]12C=C(OC)[C@@H](O)[C@](OC)(C(c3cc(OC)c4c(c3)OCO4)[C@H]1C)[C@H]2OC(C)=O (stereo partly drawn) | > 100 |
| Cn1c2ccccc2c(=NNc2cccc(C(=O)O)c2)c2ccccc21 | 27.1 |
| C=CCOc1ccc(C2C(C(=O)OCC)C(=O)CC(C)(O)C2C(=O)OCC)cc1OC (stereo not drawn) | > 100 |
| Nc1nc(Cl)cc(NCC2(CO)CCCC2)n1 | > 100 |

The compounds below were run on HOP-62 NSCLC (assay: NCI-60 cell line screen, 48 h).

| Compound | TGI [µM] |
| --- | --- |
| C=CC[C@]12C=C(OC)[C@@H](O)[C@](OC)(C(c3cc(OC)c4c(c3)OCO4)[C@H]1C)[C@H]2OC(C)=O (stereo partly drawn) | > 100 |
| Cn1c2ccccc2c(=NNc2cccc(C(=O)O)c2)c2ccccc21 | 47.8 |
| C=CCOc1ccc(C2C(C(=O)OCC)C(=O)CC(C)(O)C2C(=O)OCC)cc1OC (stereo not drawn) | > 100 |
| Nc1nc(Cl)cc(NCC2(CO)CCCC2)n1 | > 100 |

The compounds below were run on KM12 colon (assay: NCI-60 cell line screen, 48 h).

| Compound | TGI [µM] |
| --- | --- |
| C=CC[C@]12C=C(OC)[C@@H](O)[C@](OC)(C(c3cc(OC)c4c(c3)OCO4)[C@H]1C)[C@H]2OC(C)=O (stereo partly drawn) | > 100 |
| Cn1c2ccccc2c(=NNc2cccc(C(=O)O)c2)c2ccccc21 | 47.5 |
| C=CCOc1ccc(C2C(C(=O)OCC)C(=O)CC(C)(O)C2C(=O)OCC)cc1OC (stereo not drawn) | > 100 |
| Nc1nc(Cl)cc(NCC2(CO)CCCC2)n1 | > 100 |

Each compound was assayed on UO-31 renal (assay: NCI-60 cell line screen, 48 h).

| Compound | TGI [µM] |
| --- | --- |
| C=CC[C@]12C=C(OC)[C@@H](O)[C@](OC)(C(c3cc(OC)c4c(c3)OCO4)[C@H]1C)[C@H]2OC(C)=O (stereo partly drawn) | > 100 |
| Cn1c2ccccc2c(=NNc2cccc(C(=O)O)c2)c2ccccc21 | 46.3 |
| C=CCOc1ccc(C2C(C(=O)OCC)C(=O)CC(C)(O)C2C(=O)OCC)cc1OC (stereo not drawn) | > 100 |
| Nc1nc(Cl)cc(NCC2(CO)CCCC2)n1 | > 100 |

The compounds below were run on OVCAR-4 ovarian (assay: NCI-60 cell line screen, 48 h).

| Compound | TGI [µM] |
| --- | --- |
| C=CC[C@]12C=C(OC)[C@@H](O)[C@](OC)(C(c3cc(OC)c4c(c3)OCO4)[C@H]1C)[C@H]2OC(C)=O (stereo partly drawn) | > 100 |
| Cn1c2ccccc2c(=NNc2cccc(C(=O)O)c2)c2ccccc21 | 40.3 |
| C=CCOc1ccc(C2C(C(=O)OCC)C(=O)CC(C)(O)C2C(=O)OCC)cc1OC (stereo not drawn) | > 100 |
| Nc1nc(Cl)cc(NCC2(CO)CCCC2)n1 | > 100 |

These compounds were tested on COLO 205 colon (assay: NCI-60 cell line screen, 48 h).

| Compound | TGI [µM] |
| --- | --- |
| C=CC[C@]12C=C(OC)[C@@H](O)[C@](OC)(C(c3cc(OC)c4c(c3)OCO4)[C@H]1C)[C@H]2OC(C)=O (stereo partly drawn) | > 100 |
| Cn1c2ccccc2c(=NNc2cccc(C(=O)O)c2)c2ccccc21 | 28.5 |
| C=CCOc1ccc(C2C(C(=O)OCC)C(=O)CC(C)(O)C2C(=O)OCC)cc1OC (stereo not drawn) | > 100 |
| Nc1nc(Cl)cc(NCC2(CO)CCCC2)n1 | > 100 |

These compounds were tested on HCT-15 colon (assay: NCI-60 cell line screen, 48 h).

| Compound | TGI [µM] |
| --- | --- |
| C=CC[C@]12C=C(OC)[C@@H](O)[C@](OC)(C(c3cc(OC)c4c(c3)OCO4)[C@H]1C)[C@H]2OC(C)=O (stereo partly drawn) | > 100 |
| Cn1c2ccccc2c(=NNc2cccc(C(=O)O)c2)c2ccccc21 | 51.4 |
| C=CCOc1ccc(C2C(C(=O)OCC)C(=O)CC(C)(O)C2C(=O)OCC)cc1OC (stereo not drawn) | > 100 |
| Nc1nc(Cl)cc(NCC2(CO)CCCC2)n1 | > 100 |

These compounds were tested on HCC-2998 colon (assay: NCI-60 cell line screen, 48 h).

| Compound | TGI [µM] |
| --- | --- |
| C=CC[C@]12C=C(OC)[C@@H](O)[C@](OC)(C(c3cc(OC)c4c(c3)OCO4)[C@H]1C)[C@H]2OC(C)=O (stereo partly drawn) | > 100 |
| Cn1c2ccccc2c(=NNc2cccc(C(=O)O)c2)c2ccccc21 | 14.9 |
| C=CCOc1ccc(C2C(C(=O)OCC)C(=O)CC(C)(O)C2C(=O)OCC)cc1OC (stereo not drawn) | > 100 |
| Nc1nc(Cl)cc(NCC2(CO)CCCC2)n1 | > 100 |

Each compound was assayed on EKVX NSCLC (assay: NCI-60 cell line screen, 48 h).

| Compound | TGI [µM] |
| --- | --- |
| C=CC[C@]12C=C(OC)[C@@H](O)[C@](OC)(C(c3cc(OC)c4c(c3)OCO4)[C@H]1C)[C@H]2OC(C)=O (stereo partly drawn) | > 100 |
| Cn1c2ccccc2c(=NNc2cccc(C(=O)O)c2)c2ccccc21 | 28.7 |
| C=CCOc1ccc(C2C(C(=O)OCC)C(=O)CC(C)(O)C2C(=O)OCC)cc1OC (stereo not drawn) | > 100 |
| Nc1nc(Cl)cc(NCC2(CO)CCCC2)n1 | > 100 |

These compounds were tested on SNB-19 CNS (assay: NCI-60 cell line screen, 48 h).

| Compound | TGI [µM] |
| --- | --- |
| C=CC[C@]12C=C(OC)[C@@H](O)[C@](OC)(C(c3cc(OC)c4c(c3)OCO4)[C@H]1C)[C@H]2OC(C)=O (stereo partly drawn) | > 100 |
| Cn1c2ccccc2c(=NNc2cccc(C(=O)O)c2)c2ccccc21 | > 100 |
| C=CCOc1ccc(C2C(C(=O)OCC)C(=O)CC(C)(O)C2C(=O)OCC)cc1OC (stereo not drawn) | > 100 |
| Nc1nc(Cl)cc(NCC2(CO)CCCC2)n1 | > 100 |

What follows are compounds tested on SF-539 CNS (assay: NCI-60 cell line screen, 48 h).

| Compound | TGI [µM] |
| --- | --- |
| C=CC[C@]12C=C(OC)[C@@H](O)[C@](OC)(C(c3cc(OC)c4c(c3)OCO4)[C@H]1C)[C@H]2OC(C)=O (stereo partly drawn) | > 100 |
| Cn1c2ccccc2c(=NNc2cccc(C(=O)O)c2)c2ccccc21 | 46.9 |
| C=CCOc1ccc(C2C(C(=O)OCC)C(=O)CC(C)(O)C2C(=O)OCC)cc1OC (stereo not drawn) | > 100 |
| Nc1nc(Cl)cc(NCC2(CO)CCCC2)n1 | > 100 |

These compounds were tested on MCF7 breast (assay: NCI-60 cell line screen, 48 h).

| Compound | TGI [µM] |
| --- | --- |
| C=CC[C@]12C=C(OC)[C@@H](O)[C@](OC)(C(c3cc(OC)c4c(c3)OCO4)[C@H]1C)[C@H]2OC(C)=O (stereo partly drawn) | > 100 |
| Cn1c2ccccc2c(=NNc2cccc(C(=O)O)c2)c2ccccc21 | 11.7 |
| C=CCOc1ccc(C2C(C(=O)OCC)C(=O)CC(C)(O)C2C(=O)OCC)cc1OC (stereo not drawn) | > 100 |
| Nc1nc(Cl)cc(NCC2(CO)CCCC2)n1 | > 100 |

The compounds below were run on NCI-H522 lung (assay: NCI-60 cell line screen, 48 h).

| Compound | TGI [µM] |
| --- | --- |
| C=CC[C@]12C=C(OC)[C@@H](O)[C@](OC)(C(c3cc(OC)c4c(c3)OCO4)[C@H]1C)[C@H]2OC(C)=O (stereo partly drawn) | > 100 |
| Cn1c2ccccc2c(=NNc2cccc(C(=O)O)c2)c2ccccc21 | 21 |
| C=CCOc1ccc(C2C(C(=O)OCC)C(=O)CC(C)(O)C2C(=O)OCC)cc1OC (stereo not drawn) | > 100 |
| Nc1nc(Cl)cc(NCC2(CO)CCCC2)n1 | > 100 |
